Reference: patent USRE42014E1, “Pharmaceutical compositions” (Novartis AG, priority 1996, dated 2010)

What was measured:
[1] = per 100 ml of a 10% fat emulsion
Description: (§1) The solubilization efficacy was determined by filtering the drug loaded fat emulsion through a 0.2 micron Nuclepore filter. Drug compound which is not solubilized was held back by the filter and determined gravimetrically and/or by HPLC measurements.

[2] = Solubilization of active agent in fat emulsions: filtration through 0.2 micron Nuclepore filter, retained drug determined gravimetrically and/or by HPLC
Description: as §1
Further sodium oleate was used, instead of POPG.Na.
Propylene glycol was then used to replace a part of the ethanol content.

SMILES: C/C=C/C[C@@H](C)C(=O)[C@H]1C(=O)N[C@@H](C(C)C)C(=O)N(C)CC(=O)N(C)[C@@H](CC(C)C)C(=O)N[C@@H](C(C)C)C(=O)N(C)[C@@H](CC(C)C)C(=O)N[C@@H](C)C(=O)N[C@H](C)C(=O)N(C)[C@@H](CC(C)C)C(=O)N(C)[C@@H](CC(C)C)C(=O)N(C)[C@@H](C(C)C)C(=O)N1C [PSC 833, [3′-desoxy-3′-oxo-MeBmt]^1-[Val]^2-Ciclosporin]
- PSC 833 solubilized by 100 ml of a 10% fat emulsion [1]: up to 2 gram
- PSC 833 solubilized ([2]; plain PSC 833 solution in ethanol injected into a fat emulsion, after 30 minutes, no stabiliser): 87%
- PSC 833 retained on the filter ([2]; with POPG.Na or sodium oleate, after 5 minutes, determined by HPLC): less than 0.1%
